Test results from US8501746B2, “Organic compounds” (Xenon Pharmaceuticals Inc., priority 2006, dated 2013).

Assays:
[1] = molecular target: T1, stearoyl-CoA desaturase (SCD1) (Mus musculus, UniProt P13516); assay: SCD microsomal assay: release of 3H2O from [9,10-3H]stearoyl-CoA in mouse liver microsomes; type: biochemical; details: 15 min incubation, 25° C.
T1 construct: Reactions are started by adding 50 μL of microsomes (1.25 mg/mL); from tissue; host or cells: liver microsomes of male ICR outbred mice on a high-carbohydrate, low-fat diet
T1 sequence (P13516 1-355): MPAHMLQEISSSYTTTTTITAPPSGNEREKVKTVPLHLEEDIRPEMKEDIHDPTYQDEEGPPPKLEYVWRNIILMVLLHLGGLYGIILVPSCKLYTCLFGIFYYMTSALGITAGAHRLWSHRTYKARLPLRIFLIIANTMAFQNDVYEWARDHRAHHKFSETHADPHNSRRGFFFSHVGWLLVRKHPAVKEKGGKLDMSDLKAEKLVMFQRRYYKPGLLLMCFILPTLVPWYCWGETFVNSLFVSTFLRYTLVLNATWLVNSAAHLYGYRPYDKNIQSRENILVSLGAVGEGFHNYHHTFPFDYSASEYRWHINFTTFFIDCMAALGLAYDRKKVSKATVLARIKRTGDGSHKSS
Protocol: Measuring Stearoyl-CoA Desaturase Inhibition Activity of a Test Compound Using Mouse Liver Microsomes
Livers are immediately rinsed with cold 0.9% NaCl solution, weighed and minced with scissors. All procedures are performed at 4° C. unless specified otherwise. Livers are homogenized in a solution (1/3 w/v) containing 0.25 M sucrose, 62 mM potassium phosphate buffer (pH 7.0), 0.15 M KCl, 15 mM N-acetylcysteine, 5 mM MgCl2, and 0.1 mM EDTA using 4 strokes of a Potter-Elvehjem tissue homogenizer. The homogenate is centrifuged at 10,400×g for 20 min to eliminate mitochondria and cellular debris. The supernatant is filtered through a 3-layer cheesecloth and centrifuged at 105,000×g for 60 min. The microsomal pellet is gently resuspended in the same homogenization solution with a small glass/teflon homogenizer and stored at −70° C. The absence of mitochondrial contamination is enzymatically assessed. The protein concentration is measured using bovine serum albumin as the standard.
Incubation of Mouse Liver Microsomes with Test Compounds:
Desaturase activity is measured as the release of ^3H2O from [9,10-^3H]stearoyl-CoA. Reactions per assay point conditions are as follows: 2 μL 1.5 mM stearoyl-CoA, 0.25 μL 1 mCi/mL ^3H stearoyl CoA, 10 μL 20 mM NADH, 36.75 μL 0.1 M PK buffer (K2HPO4/NaH2PO4, pH 7.2). The test compound or control solution is added in a 1 μL volume. […] The plates are mixed and after 15 min incubation on a heating block (25° C.), the reactions are stopped by the addition of 10 μL 60% PCA. An aliquot of 100 μL is then transferred to a filter plate pretreated with charcoal and the plate centrifuged at 4000 rpm for 1 minute. The flow through containing the ^3H2O released by the SCD1 desaturation reaction is added to scintillation fluid and the radioactivity measured in a Packard TopCount. The data is analysed to identify the IC50 for test compounds and reference compounds.
The activity was defined in terms of % SCD enzyme activity remaining at the desired concentration of the test compound or as the IC50 concentration.

| SMILES | melting point | IC50 [1] [µM] |
| --- | --- | --- |
| Cc1nc(-n2ccc(OCC3CC3)cc2=O)sc1C(=O)NCc1ccccc1 [Example 1.1, N-Benzyl-2-(4-(cyclopropylmethoxy)-2-oxopyridin-1(2H)-yl)-4-methylthiazole-5-carboxamide] | 218 to 220 °C | 0.4 |
| COc1ccn(-c2nc(C)c(C(=O)NCc3ccccc3)s2)c(=O)c1 [Example 1.2, N-Benzyl-2-(4-methoxy-2-oxopyridin-1(2H)-yl)-4-methylthiazole-5-carboxamide] | 205 to 208 °C | 0.09 |
| Cc1nc(-n2ccc(OCc3ccccc3)cc2=O)[nH]c1C(=O)NCc1ccccc1 [Example 1.7, N-Benzyl-2-(4-(benzyloxy)-2-oxopyridin-1(2H)-yl)-4-methyl-1H-imidazole-5-carboxamide] | 183 to 184 °C | 0.22 |
| Cc1nc(-n2ccc(O)cc2=O)sc1C(=O)NCc1ncco1 [Example 1.22, 2-(4-Hydroxy-2-oxopyridin-1(2H)-yl)-4-methyl-N-(oxazol-2-ylmethyl)thiazole-5-carboxamide] | – | 0.43 |
| Cc1nc(-n2cccc(C(F)(F)F)c2=O)sc1C(=O)NCc1ccccc1 [Example 3.5, N-Benzyl-4-methyl-2-(2-oxo-3-(trifluoromethyl)pyridin-1(2H)-yl)thiazole-5-carboxamide] | 203 to 204 °C | 0.15 |
| Cc1nc(-n2ccccc2=O)sc1C(=O)NCc1ccc(F)cc1 [Example 3.11, N-(4-Fluorobenzyl)-4-methyl-2-(2-oxopyridin-1(2H)-yl)thiazole-5-carboxamide] | 170 to 172 °C | 0.23 |
| Cc1cc(-n2ccc(OCc3ccccc3)cc2=O)oc1C(=O)NCc1ccccc1 [Example 3.19, N-Benzyl-5-(4-(benzyloxy)-2-oxopyridin-1(2H)-yl)-3-methylfuran-2-carboxamide] | 191 to 192 °C | 5.7 |
| Cc1nc(-n2ccc3c(O)cccc3c2=O)sc1C(=O)NCc1ccccc1 [Example 7.1, N-Benzyl-2-(5-hydroxy-1-oxoisoquinolin-2(1H)-yl)-4-methylthiazole-5-carboxamide] | 218 to 221 °C | 0.03 |
| Cc1cc(-n2ccc(O)cc2=O)sc1C(=O)NCc1cccnc1 [Example 7.6, 5-(4-Hydroxy-2-oxopyridin-1(2H)-yl)-3-methyl-N-(pyridin-3-ylmethyl)thiophene-2-carboxamide] | 110 °C (dec.) | 0.8 |
| Cc1nc(-n2ccc(C3CC3)cc2=O)sc1C(=O)NCc1ccccc1 [Example 19.1, N-Benzyl-2-(4-cyclopropyl-2-oxopyridin-1(2H)-yl)-4-methylthiazole-5-carboxamide] | 149 to 151 °C | – |
| Cc1ccn(-c2nc(C)c(C(=O)NCc3ccccc3)s2)c(=O)c1 [Example 20, N-Benzyl-4-methyl-2-(4-methyl-2-oxopyridin-1(2H)-yl)thiazole-5-carboxamide] | 145 to 147 °C | – |
| Cc1nc(-n2ccc(OCc3c(C)noc3C)cc2=O)sc1C(=O)NCc1ccccc1 [Example 21.13, N-benzyl-2-(4-((3,5-dimethylisoxazol-4-yl)methoxy)-2-oxopyridin-1(2H)-yl)-4-methylthiazole-5-carboxamide] | – | 0.18 |
| Cc1nc(-n2ccc(OCc3ccccc3)cc2=O)sc1C(=O)NCc1ccc(Cl)nc1 [Example 22.19, 2-(4-(Benzyloxy)-2-oxopyridin-1(2H)-yl)-N-((6-chloropyridin-3-yl)methyl)-4-methylthiazole-5-carboxamide] | – | 0.05 |
| Cc1cc(-n2ccc(CCc3ccccc3)cc2=O)sc1C(=O)NCc1ccccc1 [Example 24, N-benzyl-3-methyl-5-(2-oxo-4-phenethylpyridine-1(2H)-yl)thiophene-2-carboxamide] | 145 to 146 °C | – |
| Cc1cc(-n2ccc(OCCCO)cc2=O)sc1C(=O)NCc1cccc(F)c1 [Example 25, N-(3-Fluorobenzyl)-5-(4-(3-hydroxypropoxy)-2-oxopyridin-1(2H)-yl)-3-methylthiophene-2-carboxamide] | 135 to 137 °C | – |
| Cc1nc(-n2ccc(N3CCNC3=O)cc2=O)sc1C(=O)NCc1ccccc1 [Example 26, N-Benzyl-4-methyl-2-(2-oxo-4-(2-oxoimidazolidin-1-yl)pyridin-1(2H)-yl)thiazole-5-carboxamide] | > 300 °C | – |
| COc1ccn(-c2nc(C)c(C(=O)NCc3ccc[n+]([O-])c3)s2)c(=O)c1 [Example 27, 3-((2-(4-methoxy-2-oxopyridin-1(2H)-yl)-4-methylthiazole-5-carboxamido)methyl)pyridine 1-oxide] | 255 to 257 °C | – |
